# Target: Complement factor D (Homo sapiens, UniProt P00746)
# Assay: Human Factor D Assay: Human Factor D (purified from human serum, Complement Technology, Inc.) at 80 nM final concentration is incubated with test compound at various concentrations for 5 minutes at room temperature in 50 mM Tris, 1M NaCl, pH 7.5. A synthetic substrate Z-L-Lys-SBzl and DTNB (Ellman's reagent) are added to final concentrations of 100 μM each. Absorbance at 405 nm (A405) is recorded at 30 second intervals for 30 minutes using a microplate spectrophotometer. IC50 values are calculated by nonlinear regression of complement Factor D reaction rates as a function of test compound concentration.
# Chain of Complement factor D (P00746 whole entry): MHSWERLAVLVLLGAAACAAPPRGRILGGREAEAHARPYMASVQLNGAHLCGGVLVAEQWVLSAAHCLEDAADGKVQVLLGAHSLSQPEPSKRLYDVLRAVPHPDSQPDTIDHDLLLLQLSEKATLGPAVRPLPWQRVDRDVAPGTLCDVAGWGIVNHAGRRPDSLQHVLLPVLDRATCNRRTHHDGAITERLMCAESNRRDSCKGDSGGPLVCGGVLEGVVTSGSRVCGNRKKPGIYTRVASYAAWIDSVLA
compound,measurement,value
CC(=O)c1nn(CC(=O)N2C[C@H](F)C[C@H]2C(=O)Nc2cccc(Br)n2)c2ccc(-c3cnc(S(C)(=O)=NC(=O)OC(C)(C)C)nc3)cc12 (stereo partly specified),IC50,< 1 µM

# From ChEMBL document CHEMBL5728462, “Disubstituted compounds for treatment of medical disorders” (2021)
